According to patent publication US20250195511A1, “INDAZOLE DERIVATIVES USEFUL AS INHIBITORS OF NOD-LIKE RECEPTOR PROTEIN 3” (Merck Sharp & Dohme LLC, priority 2023, published 2025):
pEC50: −log10 of the molar value.

Test system: NLRP3 inflammasome
Assay: NLRP3 inflammasome activation: ASC-SPECK formation in gramicidin-stimulated THP-1 cells
Format: cell-based
Details: Homo sapiens, THP-1, inhibition of ASC SPECK formation; PMA-treated human monocytic THP-1 cells, compound 1 h before 12.5 μg/ml gramicidin, 3-hour treatment
Summary of the method: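 Undifferentiated human THP-1 cells primed overnight with 10 ng/ml PMA, then given compounds 1 h before 12.5 μg/ml gramicidin for 3 h at 37° C in RPMI with 0.01% BSA. Fixed cells immunostained for ASC with DRAQ5 nuclear counterstain; DRAQ5-positive cells with ASC specks counted by high-content imaging; EC50 from curve fitting.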

| SMILES | pEC50 |
| --- | --- |
| Cc1cc(C(F)(F)F)cc(O)c1-c1cnc2cn([C@H]3C[C@H](Cl)C3)nc2n1 [Example 49, 2-(2-((1R,3R)-3-chlorocyclobutyl)-2H-pyrazolo[3,4-b]pyrazin-6-yl)-3-methyl-5-(trifluoromethyl)phenol] | 7.51 |
| Cc1cc(C(F)(F)F)cc(O)c1-c1cnc2cn([C@@H]3C[C@H]3C)nc2n1 [Example 50, 3-methyl-2-[2-[(1R,2R)-2-methylcyclopropyl]pyrazolo[3,4-b]pyrazin-6-yl]-5-(trifluoromethyl)phenol] | 6.99 |
| Cc1cc(C(F)(F)F)cc(O)c1-c1cnc2cn(C3(C)CCOCC3)nc2n1 [Example 51, 3-methyl-2-[2-(4-methyltetrahydropyran-4-yl)pyrazolo[3,4-b]pyrazin-6-yl]-5-(trifluoromethyl)phenol] | 6.85 |
| Cc1cc(C(F)(F)F)cc(O)c1-c1cnc2cn([C@H]3C[C@@H]3C)nc2n1 [Example 52, 3-methyl-2-[2-[(1S,2S)-2-methylcyclopropyl]pyrazolo[3,4-b]pyrazin-6-yl]-5-(trifluoromethyl)phenol] | 7.40 |
| Cc1cc(Cl)cc(O)c1-c1cnc2cn([C@H]3C[C@H](F)C3)nc2n1 [Example 55, 5-chloro-2-(2-((1R,3R)-3-fluorocyclobutyl)-2H-pyrazolo[3,4-b]pyrazin-6-yl)-3-methylphenol] | 7.57 |
| Cc1cc(Cl)cc(O)c1-c1cnc2cn([C@@H]3[C@@H]4COC[C@@H]43)nc2n1 [Example 56, 2-(2-((1R,5S,6S)-3-oxabicyclo[3.1.0]hexan-6-yl)-2H-pyrazolo[3,4-b]pyrazin-6-yl)-5-chloro-3-methylphenol] | 7.38 |
| Cc1cc(Cl)cc(O)c1-c1cnc2cn([C@H]3[C@@H]4COC[C@@H]43)nc2n1 [Example 57, 2-(2-((1R,5S,6R)-3-oxabicyclo[3.1.0]hexan-6-yl)-2H-pyrazolo[3,4-b]pyrazin-6-yl)-5-chloro-3-methylphenol] | 7.22 |
| CCN1C[C@H](Cn2cc3ncc(-c4c(C)cc(C(F)(F)F)cc4O)nc3n2)OC1=O [Example 110, (R)-3-ethyl-5-((6-(2-hydroxy-6-methyl-4-(trifluoromethyl)phenyl)-2H-pyrazolo[3,4-b]pyrazin-2-yl)methyl)oxazolidin-2-one] | 6.77 |
| Cc1cc(C(F)(F)F)cc(O)c1-c1cnc2nn([C@H]3C[C@H](F)C3)nc2n1 [Example 121, 2-(2-((1R,3R)-3-fluorocyclobutyl)-2H-[1,2,3]triazolo[4,5-b]pyrazin-5-yl)-3-methyl-5-(trifluoromethyl)phenol] | 6.39 |
